{"source": "patent US9120766B2", "about": "“Methods of making cocrystals” (Aptuit (West Lafayette), LLC, priority 2011, dated 2015)", "key": {"physchem": {"experiment": "physchem", "settings": "thermodynamic from solid"}, "[1]": {"settings": "literature (López-Nicolás 2009); cited from earlier work"}, "[2]": {"settings": "literature; cited from earlier work"}, "[3]": {"experiment": "Solubility estimates at ambient temperature (gravimetric or incremental solvent addition)", "settings": "thermodynamic from solid"}}, "data": [{"smiles": "CC(=O)[C@H]1CC[C@H]2[C@@H]3CCC4=CC(=O)CC[C@]4(C)[C@H]3CC[C@]12C", "note": "[Progesterone, reference compound]", "values": [{"measurement": "solubility", "setting": "physchem; organic solvent or mixture", "result": 30, "unit": "mg/mL"}]}, {"smiles": "COc1cc(/C=C/c2ccc(O)cc2)cc(OC)c1", "note": "[Pterostilbene]", "values": [{"measurement": "Solubility in water", "setting": "[1]", "result": "poor solubility in water"}, {"measurement": "Bioavailability", "setting": "[2]", "result": "poor bioavailability"}, {"measurement": "solubility", "setting": "[3]; ACN, organic solvent or mixture, solvent ACN, ambient temperature", "result": "> 203", "unit": "mg/mL"}, {"measurement": "solubility", "setting": "[3]; EtOAc, organic solvent or mixture, solvent EtOAc, ambient temperature", "result": "> 201", "unit": "mg/mL"}, {"measurement": "solubility", "setting": "[3]; EtOH, organic solvent or mixture, solvent EtOH, ambient temperature", "result": 410, "unit": "mg/mL"}, {"measurement": "solubility", "setting": "[3]; MEK, organic solvent or mixture, solvent MEK, ambient temperature (Table 1)", "result": "> 200", "unit": "mg/mL"}, {"measurement": "solubility", "setting": "[3]; MTBE, organic solvent or mixture, solvent MTBE, ambient temperature", "result": "> 200", "unit": "mg/mL"}, {"measurement": "solubility", "setting": "[3]; heptane, organic solvent or mixture, solvent Heptane, ambient temperature", "result": "< 2", "unit": "mg/mL"}, {"measurement": "solubility", "setting": "[3]; isopropanol/water with water content 70% and higher, aqueous with cosolvent or surfactant or cyclodextrin", "result": "≤ 2", "unit": "mg/mL"}, {"measurement": "solubility", "setting": "[3]; isopropanol:water 40:60, aqueous with cosolvent or surfactant or cyclodextrin, 40:60 isopropanol to water mixture", "result": "~22", "unit": "mg/mL"}, {"measurement": "solubility", "setting": "[3]; isopropyl alcohol (IPA), organic solvent or mixture, solvent IPA (isopropyl alcohol), ambient temperature", "result": 399, "unit": "mg/mL"}, {"measurement": "solubility", "setting": "[3]; water, solvent Water, ambient temperature", "result": 0.02, "unit": "mg/mL"}, {"measurement": "solubility", "setting": "[3]; water:IPA 55:45, aqueous with cosolvent or surfactant or cyclodextrin, solvent Water:IPA 55:45, ambient temperature", "result": 22, "unit": "mg/mL"}, {"measurement": "solubility", "setting": "[3]; water:IPA 60:40, aqueous with cosolvent or surfactant or cyclodextrin, solvent Water:IPA 60:40, ambient temperature", "result": 22, "unit": "mg/mL"}, {"measurement": "solubility", "setting": "[3]; water:IPA 70:30, aqueous with cosolvent or surfactant or cyclodextrin, solvent Water:IPA 70:30, ambient temperature", "result": 2, "unit": "mg/mL"}, {"measurement": "solubility", "setting": "[3]; water:ethanol 50:50 v/v, aqueous with cosolvent or surfactant or cyclodextrin, solvent system Water:ethanol 50:50 v/v, ambient temperature", "result": 54, "unit": "mg/mL"}]}, {"smiles": "NC(=O)c1cccnc1", "note": "[nicotinamide]", "values": [{"measurement": "solubility", "setting": "physchem; organic solvent or mixture", "result": 42, "unit": "mg/mL"}]}, {"smiles": "C1CNCCN1", "note": "[piperazine]", "values": [{"measurement": "solubility", "setting": "physchem; aqueous with cosolvent or surfactant or cyclodextrin", "result": "> 324", "unit": "mg/mL"}]}]}
